The target of experiment [1] is T1, RIG-I K270I (Homo sapiens, UniProt O95786, K270I).
T1 construct: different full-length RIG-I mutants (1–925, N-terminal His-tag); made in house; host or cells: High Five (Trichoplusia ni) insect cells, baculovirus, pFBDM vector
T1 sequence (O95786 1-925 K270I): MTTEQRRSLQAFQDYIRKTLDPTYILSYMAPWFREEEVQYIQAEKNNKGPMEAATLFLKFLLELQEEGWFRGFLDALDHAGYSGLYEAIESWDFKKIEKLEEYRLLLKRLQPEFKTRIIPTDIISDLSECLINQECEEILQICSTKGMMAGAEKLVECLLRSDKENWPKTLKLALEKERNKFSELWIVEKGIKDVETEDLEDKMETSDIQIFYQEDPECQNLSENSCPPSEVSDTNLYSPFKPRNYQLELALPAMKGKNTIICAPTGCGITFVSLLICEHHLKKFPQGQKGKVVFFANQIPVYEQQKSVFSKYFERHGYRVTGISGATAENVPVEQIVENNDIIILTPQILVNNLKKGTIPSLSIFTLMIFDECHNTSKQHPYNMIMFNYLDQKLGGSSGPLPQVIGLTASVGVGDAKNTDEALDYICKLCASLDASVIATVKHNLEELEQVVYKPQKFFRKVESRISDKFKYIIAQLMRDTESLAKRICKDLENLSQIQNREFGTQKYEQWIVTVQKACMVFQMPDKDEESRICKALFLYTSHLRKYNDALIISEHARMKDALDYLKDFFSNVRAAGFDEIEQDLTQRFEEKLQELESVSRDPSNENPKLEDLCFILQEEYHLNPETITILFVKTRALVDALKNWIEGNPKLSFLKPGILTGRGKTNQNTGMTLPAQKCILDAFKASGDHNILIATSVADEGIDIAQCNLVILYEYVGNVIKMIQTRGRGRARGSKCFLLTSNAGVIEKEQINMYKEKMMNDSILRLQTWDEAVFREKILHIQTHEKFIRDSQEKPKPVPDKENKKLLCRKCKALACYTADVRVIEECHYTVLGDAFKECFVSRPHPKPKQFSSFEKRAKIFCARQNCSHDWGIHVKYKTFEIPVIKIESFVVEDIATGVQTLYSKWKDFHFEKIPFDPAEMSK
The experiment is described as follows: MANT-nucleotide binding, tryptophan fluorescence FRET. How it is done: (§1) Binding of MANT-ATP and MANT-ATPγS to different full-length RIG-I mutants (1–925, N-terminal His-tag) was determined via Förster resonance energy transfer from RIG-I to MANT-ATP (Jena Bioscience, Jena, Germany). All samples were prepared in 96-well black chimney microplates. 2.2 µM protein and equimolar concentrations of a 14mer dsRNA (5'-CGACGCUAGCGUCG-3', see 'Protein crystalization') were pre-incubated with different MANT-ATP concentrations (0.2 µM – 200 µM) for 15 min at room temperature in assay buffer (25 mM HEPES, 50 mM NaCl, 5 mM MgCl2, 1 mM DTT, pH 7). Fluorescence of MANT-ATP was measured in a TECAN M1000 microplate reader at λex/em = 290/448 nm, gain = 170 using an average of five reads per well. Assays were performed four times in independent experiments using the same protein purification batch. For determination of affinities fluorescence values were fitted to Equation (1) using R, where y is the fluorescence, [P] is the protein concentration, Bmax is the maximal fluorescence and KD is the dissociation constant. Fitting was performed globally on all available datasets. Representative values in figures are mean values ± SD.

For experiment [2], the target named is T2, RIG-I C268F (Homo sapiens, UniProt O95786, C268F).
T2 construct: made in house; host or cells: High Five (Trichoplusia ni) insect cells, baculovirus, pFBDM vector
T2 sequence (O95786 1-925 C268F): T1 sequence (O95786 1-925 K270I) with C268F, I270K
Described as above. As to the method:
as §1

The mark [3] stands for this setting: presence of equimolar 14mer dsRNA, n.f. = no fit possible as no saturation was reached.

Positions count from the first letter of the chain named.

For the substance MANT-ATP, the Kd was 298 ± 81 µM in experiment [1] (absence of RNA, n = 4, read-out: Affinity (KD) to RIG-I K270I) and 166 ± 34 µM in experiment [2] (absence of RNA, n = 4, read-out: Affinity (KD) to RIG-I C268F). The “Affinity (KD) to RIG-I K270I + RNA” value in experiment [1] (setting [3]) is “n.f”. Besides, the “Affinity (KD) to RIG-I C268F + RNA” value in experiment [2] (setting [3]) is “n.f”.

One may read the Kd as the equilibrium constant for the complex coming apart.

For the origin of these results see paper PMC6086658, “Unified mechanisms for self-RNA recognition by RIG-I Singleton-Merten syndrome variants” (eLife, 2018).
